In PMC3463753 (Molecular pharmaceutics, 2012):

Test system: MDCK-WT, MDCK-CYP3A4 and MDCK-MDR1-CYP3A4 cells
Experiment: Mannitol
Assay type: in vitro ADME, dog
Settings: paracellular marker; data not shown

Which “Mannitol transport in MDCK-WT, MDCK-CYP3A4 and MDCK-MDR1-CYP3A4 cells” value does the source give for `OC[C@@H](O)[C@@H](O)[C@H](O)[C@H](O)CO` [mannitol] here?
Its value is “No significant difference”.
